Measurements reported in patent publication US20220348885A1, “BIOLOGICALLY RELEVANT IN VITRO SCREENING OF HUMAN NEURONS” (The Board of Trustees of the Leland Stanford Junior …, priority 2016, published 2022).
“Also recorded” adds a separate entry of the source.

Key:
[1] = test system: neural co-cultures consisting of primary glial cells and glutamatergic excitatory iN cells; experiment: MEA recording of neuronal network activity, pure excitatory co-culture (Example 3); type: cell-based, human; settings: for decrease of the frequency of total bursts / decrease of the frequency of total spikes (mean firing rate): dosed vs baseline
Method: Induced excitatory neurons were seeded at day 4 after induction by transcriptional activation of the neurogenic transcription factor NGN2, on 12-well MEA plates (Axion BioSystems) coated with matrigel. A total of 600,000 iN cells were plated per well. Primary glial cells were obtained by dissociating brains of mouse pups at postnatal day 3 with hippocampal and cerebellar structures being removed in advance. Dissociated brains were pre-cultured and passaged twice to remove primary neurons. Glial cells were then seeded directly on the plated iN cells at a density of 120,000 cells per well.
Recordings of spontaneous neuronal activity were performed at 1, 2, 3, and 4 weeks after plating for a period of 10 minutes each.
Neural co-cultures were produced as described under Example 1. […] Recordings were performed at week 4 in culture for 10 minutes for each condition including baseline measurements prior to compound application and test measurements following the addition of a single compound. Between baseline and test condition recordings, the plates were store in an incubator (37° C., 5% CO2) to readjust pH of the media. Each compound was applied to a different well in order to prevent secondary effects of previous treatments. First, the effect of the common compound solvent DMSO was tested by adding 0.1% to the neural co-culture medium. As depicted in FIG. 6A i and ii, DMSO alone increased the frequency of total spikes (mean firing rate) and the frequency of total bursts by 0.2 Hz and 0.018 Hz, respectively. Moreover, a minor increase in synchrony could be detected increasing the percentage of bursts within synchronized network activity by approximately 5%.

[2] = test system: neural co-cultures consisting of primary human glial cells and a mixture of glutamatergic excitatory iN cells and GABAergic inhibitory iN cells; experiment: Bicuculline-induced seizure-like network activity on MEA and co-application of antiepileptic drugs (Example 7); type: cell-based; settings: co-application with 1 μM bicuculline, 3 doses
Method: Generation of human neural co-cultures and MEA recording settings and thresholds were as described under Example 6. […] Co-application of AEDs was performed in 3 different doses and each condition was tested in 6 technical replicates.

[3] = test system: neural co-cultures consisting of primary glial cells and a mixture of glutamatergic excitatory iN cells and GABAergic inhibitory iN cells; experiment: MEA recording of neuronal network activity, mixed excitatory/inhibitory co-culture approx. 70%/30% (Example 4); type: cell-based, human; settings: 50 μM, excitatory/inhibitory approx. 70%/30%
Method: Induced excitatory neurons were seeded at day 4 and induced inhibitory neurons were seeded at day 6 after induction. A total of 200000 excitatory iN cells and 200000 inhibitory iN cells were plated simultaneously per well on 12-well MEA plates (Axion BioSystems) coated with matrigel. Primary glial cells were obtained as described in Example 1, and seeded directly on the plated iN cells at a density of 100000 cells per well.
Neural co-cultures were produced as described under Example 2 resulting in excitatory/inhibitory iN cell ratio of approximately 70%/30%. Recordings of neuronal activity, threshold values, and the procedure of measuring baseline and test conditions were performed as described under Example 3. Here, the effect of PTX was tested by adding a final concentration of 50 μM to the neural co-culture medium.

[4] = test system: neural co-cultures with a stronger inhibitory component (excitatory/inhibitory iN cells 50%/50%, glial cells from human primary NSCs); experiment: MEA recording of neuronal network activity, mixed excitatory/inhibitory co-culture approx. 50%/50% with human glial cells (Example 4, second experiment); type: cell-based; settings: 50 μM, excitatory/inhibitory approx. 50%/50%, 4 weeks in culture
Method: In a second experiment, the effect of PTX on synchronized neuronal network activity in neural co-cultures with a stronger inhibitory component was assessed. For this purpose, a total of 100,000 excitatory iN cells and 300,000 inhibitory iN cells were plated simultaneously per well on 12-well MEA plates (Axion BioSystems) coated with matrigel. Glial cells were derived from human primary NSCs as described above and seeded directly on the plated iN cells at a density of 100,000 cells per well. Due to the different apoptosis rates of the two iN cells types mentioned earlier, the final ratio of excitatory/inhibitory neurons after 4 weeks in culture was approximately 50%/50%.
The effect of PTX was tested by adding a final concentration of 50 μM to the neural co-culture medium.

NC(CCCP(=O)(O)O)C(=O)O (stereo not shown) [AP5]
reduction of the average duration of bursts ([1]; 50 μM, week 4 in culture): about 30% | synchronized network activity as measured by network burst percentage ([1]; 50 μM, week 4 in culture): reduced | decrease of the frequency of total bursts ([1]; 50 μM, week 4 in culture): 0.004 Hz | decrease of the frequency of total spikes (mean firing rate) ([1]; 50 μM, week 4 in culture): 0.2 Hz

N#Cc1cc2[nH]c(=O)c(=O)[nH]c2cc1[N+](=O)[O-] [CNQX]
occurrence of synchronized network activity ([1]; 20 μM, week 4 in culture): completely abolished | decrease of the frequency of total bursts ([1]; 20 μM, week 4 in culture): 0.005 Hz | decrease of the frequency of total spikes (mean firing rate) ([1]; 20 μM, week 4 in culture): 0.4 Hz

Nc1nnc(-c2cccc(Cl)c2Cl)c(N)n1 [lamotrigine]
mean firing rate, network burst duration, and synchrony [2]: to baseline level (solvent control), or further reduced; also recorded: dose-dependent decrease

O=C1NC(=O)C(c2ccccc2)(c2ccccc2)N1 [phenytoin]
mean firing rate, network burst duration, and synchrony [2]: to baseline level (solvent control), or further reduced; also recorded: dose-dependent decrease

picrotoxin [PTX]
increase of synchrony of network bursts [3]: ~60% | spike and burst frequencies [3]: increase | synchronized network burst pattern [4]: extended synchronized bursts with shortening inter-burst intervals | change in spike and burst frequencies and synchronized network activity ([1]; 50 μM in 0.1% DMSO, pure excitatory culture without GABAergic cells): largely corresponded to the changes observed upon application of 0.1% DMSO
